The source of these data is paper PMC3914206.

SMILES strings stand for the structures.

Holding throughout (type): binding
What all share (conditions): Compound Concentration 10 µM

The target of test [1] is T1, panel of 442 kinases (Homo sapiens, UniProt P07949, V804L).
T1 construct: purchased KINOMEscan
The text has this: (§1) We assessed the selectivity of members of this scaffold using the KINOMEscan methodology across a near comprehensive panel of 442 kinases [[18,27]].

Test [2] concerns the target T2, panel of 442 kinases (Homo sapiens, UniProt P23458).
T2 construct: purchased KINOMEscan
Text: as §1

Test [3] addresses T3, panel of 442 kinases (Homo sapiens, UniProt P42685).
T3 construct: purchased KINOMEscan
Text: as §1

Test [4] concerns the target T4, panel of 442 kinases (Homo sapiens, UniProt P49759).
T4 construct: purchased KINOMEscan
Text: as §1

T3 sequence (P42685 whole entry): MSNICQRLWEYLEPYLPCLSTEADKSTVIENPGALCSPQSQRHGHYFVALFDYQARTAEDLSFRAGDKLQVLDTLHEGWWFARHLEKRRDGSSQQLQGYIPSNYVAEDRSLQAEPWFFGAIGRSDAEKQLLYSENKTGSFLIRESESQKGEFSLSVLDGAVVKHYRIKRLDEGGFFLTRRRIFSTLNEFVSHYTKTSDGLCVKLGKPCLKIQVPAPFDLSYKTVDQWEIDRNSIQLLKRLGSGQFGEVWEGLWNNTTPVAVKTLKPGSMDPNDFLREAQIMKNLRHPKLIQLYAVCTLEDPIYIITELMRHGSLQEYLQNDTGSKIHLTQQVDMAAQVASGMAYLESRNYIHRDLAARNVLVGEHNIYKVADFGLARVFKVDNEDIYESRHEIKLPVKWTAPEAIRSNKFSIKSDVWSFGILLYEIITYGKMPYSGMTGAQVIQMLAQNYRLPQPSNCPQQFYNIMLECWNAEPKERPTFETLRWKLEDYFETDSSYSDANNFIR
T4 sequence (P49759 whole entry): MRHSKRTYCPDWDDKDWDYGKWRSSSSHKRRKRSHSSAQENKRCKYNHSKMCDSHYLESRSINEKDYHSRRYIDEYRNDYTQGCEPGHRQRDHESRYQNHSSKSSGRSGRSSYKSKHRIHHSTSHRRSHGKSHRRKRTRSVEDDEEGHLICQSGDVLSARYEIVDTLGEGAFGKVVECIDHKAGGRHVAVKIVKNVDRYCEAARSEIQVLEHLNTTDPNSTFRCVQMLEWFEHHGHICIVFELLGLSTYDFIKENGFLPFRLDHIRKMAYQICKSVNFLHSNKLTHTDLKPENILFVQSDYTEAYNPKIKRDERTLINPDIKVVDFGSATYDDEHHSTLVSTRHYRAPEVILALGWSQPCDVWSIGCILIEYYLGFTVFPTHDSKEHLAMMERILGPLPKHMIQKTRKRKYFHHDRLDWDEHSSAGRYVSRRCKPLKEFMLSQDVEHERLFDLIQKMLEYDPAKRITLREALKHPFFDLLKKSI
T1 sequence (P07949 29-1114 V804L): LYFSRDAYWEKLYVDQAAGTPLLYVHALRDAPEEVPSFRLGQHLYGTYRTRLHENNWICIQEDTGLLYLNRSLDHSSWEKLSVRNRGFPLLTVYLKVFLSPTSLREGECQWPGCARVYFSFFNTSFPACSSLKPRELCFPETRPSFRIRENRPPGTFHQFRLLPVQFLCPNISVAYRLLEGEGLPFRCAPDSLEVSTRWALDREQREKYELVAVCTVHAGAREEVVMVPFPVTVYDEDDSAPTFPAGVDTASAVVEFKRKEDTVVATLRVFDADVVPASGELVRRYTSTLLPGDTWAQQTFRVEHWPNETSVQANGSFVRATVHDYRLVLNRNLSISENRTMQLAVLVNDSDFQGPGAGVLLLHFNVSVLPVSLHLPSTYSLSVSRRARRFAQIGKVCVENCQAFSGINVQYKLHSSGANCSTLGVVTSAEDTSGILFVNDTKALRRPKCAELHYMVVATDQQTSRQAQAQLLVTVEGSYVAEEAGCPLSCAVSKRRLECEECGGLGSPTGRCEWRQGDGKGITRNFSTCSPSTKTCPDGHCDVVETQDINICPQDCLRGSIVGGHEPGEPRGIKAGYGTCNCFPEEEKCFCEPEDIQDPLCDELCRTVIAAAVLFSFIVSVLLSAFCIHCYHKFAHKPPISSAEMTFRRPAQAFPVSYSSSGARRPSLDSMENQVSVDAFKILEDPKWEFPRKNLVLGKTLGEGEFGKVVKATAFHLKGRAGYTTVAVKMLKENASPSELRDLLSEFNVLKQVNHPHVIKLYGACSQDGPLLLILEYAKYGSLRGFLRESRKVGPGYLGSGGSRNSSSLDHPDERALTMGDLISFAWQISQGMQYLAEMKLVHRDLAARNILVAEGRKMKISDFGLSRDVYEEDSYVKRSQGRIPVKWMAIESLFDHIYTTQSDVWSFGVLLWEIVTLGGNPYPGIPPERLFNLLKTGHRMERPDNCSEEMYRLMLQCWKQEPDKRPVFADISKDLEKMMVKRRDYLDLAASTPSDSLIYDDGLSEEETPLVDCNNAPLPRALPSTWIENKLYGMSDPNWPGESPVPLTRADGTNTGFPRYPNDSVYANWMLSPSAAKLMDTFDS
T2 sequence (P23458 whole entry): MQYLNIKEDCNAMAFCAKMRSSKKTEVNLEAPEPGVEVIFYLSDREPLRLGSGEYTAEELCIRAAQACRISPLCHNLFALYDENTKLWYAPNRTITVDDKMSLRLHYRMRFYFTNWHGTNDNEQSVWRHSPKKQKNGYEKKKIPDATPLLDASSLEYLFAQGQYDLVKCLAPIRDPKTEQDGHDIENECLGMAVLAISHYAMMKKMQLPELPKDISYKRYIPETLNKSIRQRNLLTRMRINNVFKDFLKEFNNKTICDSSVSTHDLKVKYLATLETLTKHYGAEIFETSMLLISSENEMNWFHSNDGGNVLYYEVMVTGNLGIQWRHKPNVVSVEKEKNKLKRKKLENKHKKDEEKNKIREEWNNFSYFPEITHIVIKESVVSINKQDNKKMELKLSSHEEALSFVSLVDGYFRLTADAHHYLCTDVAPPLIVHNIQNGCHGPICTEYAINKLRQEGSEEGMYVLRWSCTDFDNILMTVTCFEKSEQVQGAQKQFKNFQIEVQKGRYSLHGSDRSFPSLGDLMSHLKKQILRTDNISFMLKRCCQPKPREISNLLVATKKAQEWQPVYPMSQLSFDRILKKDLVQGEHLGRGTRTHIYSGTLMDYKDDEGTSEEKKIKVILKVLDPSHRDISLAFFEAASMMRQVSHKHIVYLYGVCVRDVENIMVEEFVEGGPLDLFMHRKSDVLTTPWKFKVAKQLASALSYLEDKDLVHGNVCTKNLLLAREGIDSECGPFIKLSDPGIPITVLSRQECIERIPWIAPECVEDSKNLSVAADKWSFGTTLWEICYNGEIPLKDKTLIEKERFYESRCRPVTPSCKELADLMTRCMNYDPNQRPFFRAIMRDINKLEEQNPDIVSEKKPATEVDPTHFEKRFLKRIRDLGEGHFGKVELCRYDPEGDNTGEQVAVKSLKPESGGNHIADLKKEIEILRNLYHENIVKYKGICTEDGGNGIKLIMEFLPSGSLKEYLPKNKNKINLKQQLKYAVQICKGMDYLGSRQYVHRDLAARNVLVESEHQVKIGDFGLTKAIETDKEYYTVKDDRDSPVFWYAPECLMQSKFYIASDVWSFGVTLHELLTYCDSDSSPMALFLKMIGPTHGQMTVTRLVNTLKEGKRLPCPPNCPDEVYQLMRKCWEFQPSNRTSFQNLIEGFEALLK

Take `COc1cc(C(=O)N2CCC(N3CCN(C)CC3)CC2)ccc1Nc1ncc2c(n1)N(C)c1ccccc1C(=O)N2C` [15 (LRRK2-IN-1)]: the “KINOMEscan: RET(V804L)” value in test [1] is reported as 89. For the same molecule, in test [2], the “KINOMEscan: JAK1(JH1domain-catalytic)” value turned out to be 100 and the “KINOMEscan: JAK1(JH2domain-pseudokinase)” value is reported as 92. Further, the “KINOMEscan: FRK” value in test [3] is reported as 34. In addition, the “KINOMEscan: CLK1” value in test [4] is on record as 28.
Turning to `COc1cc(C(=O)N2CCC(N3CCN(C)CC3)CC2)ccc1Nc1ncc2c(n1)N1CCc3cccc(c31)C(=O)N2C` [Compound 24], the “KINOMEscan: RET(V804L)” value in test [1] was 77. Further, the “KINOMEscan: JAK1(JH2domain-pseudokinase)” value in test [2] is 62. The “KINOMEscan: FRK” value in test [3] was found to be 56. The “KINOMEscan: CLK1” value in test [4] turned out to be 11.
Take `COc1cc(C(=O)N2CCC(N3CCN(C)CC3)CC2)ccc1Nc1ncc2c(n1)N(C1CCCC1)c1ccccc1C(=O)N2C` [Compound 25, 11-cyclopentyl-2-((2-methoxy-4-(4-(4-methylpiperazin-1-yl)piperidine-1-carbonyl)phenyl)amino)-5-methyl-5H-benzo[e]pyrimido[5,4-b][1,4]diazepin-6(11H)-one]: in test [1], the “KINOMEscan: RET(V804L)” value came to 100. Moreover, in test [2], the “KINOMEscan: JAK1(JH1domain-catalytic)” value was found to be 100 and the “KINOMEscan: JAK1(JH2domain-pseudokinase)” value was found to be 100. For the same molecule, the “KINOMEscan: FRK” value in test [3] is 24. For the same molecule, the “KINOMEscan: CLK1” value in test [4] came to 100.
Consider `CCOc1cc(C(=O)N2CCC(N3CCN(C)CC3)CC2)ccc1Nc1ncc2c(n1)N(C1CCCC1)c1ccccc1C(=O)N2C` [Compound 26], for which the “KINOMEscan: RET(V804L)” value in test [1] amounted to 100. Besides, in test [2], the “KINOMEscan: JAK1(JH1domain-catalytic)” value was determined as 100 and the “KINOMEscan: JAK1(JH2domain-pseudokinase)” value was 98. In test [3], the “KINOMEscan: FRK” value is 87. Also, the “KINOMEscan: CLK1” value in test [4] is on record as 100.
